Measurements from publication PMC12067741, “Inhibition of SOD1 trimerization is a novel drug target for ALS disease” (Translational Neurodegeneration, 2025).
“Also recorded” adds a separate entry of the source.

Tests used:
human normal fibroblast = experiment: Cell viability (MTT); type: cell-based; settings: 48 hr
Method: (§1) Cells were incubated with 0.5 mg/mL of MTT solution (475989; Merck, Darmstadt, Germany) for 4 h at 37 °C. After removing excess solution and washing with PBS, the precipitated materials were dissolved in 200 μL DMSO and quantified by measuring absorbance at 540 nm.
(§2) Fig. S1. Optimized inhibitor reduces SOD1 aggregation. a, Mutant SOD1s induced WT-SOD1 aggregation. Testing the selected chemicals to check the inhibitory effect on SOD1 aggregation .HEK293 cells were transfected with MT-SOD1 vectors (A4V, G 93 A) and treated with selected chemicals ([…]). After incubation, transfected cells were harvested with TNNI buffer and fixed with 0.04% glutaraldehyde (Glu) for 30min. Samples were separated using SDS-PAGE. b-c, PRG-A-04 inhibited SOD1 inclusions in SK-N-SH cells. […] After incubation, cells were fixed with 4 % PFA and observed under the fluorescence microscope. (c) Cells with SOD1 inclusions (white arrows; strong intensity of SOD1) were counted by photomicrographs and the percentages were shown with standard deviation (SD). For cell counting, ten fluorescence images were randomly selected. […]
(§3) show cytotoxicity. To know the toxic effect of PRG-A-04 , human normal fibroblast (f) and neuron cells (g) were incubated with PRG -A-04 for 48 hr dose dependently and measured the viability through MTT assay .“Con” means Dimethyl sulfoxide (DMSO) -treated control . […]

SK-N-SH cells = experiment: Cell viability (MTT); type: cell-based; settings: neuron cell line, 48 hr
Method: as §1, §2, §3

[1] = BBB-PAMPA (parallel artificial membrane permeability assay); settings: PAMPA, 4 hour, 10 µM
Description: Next, we checked the basic in vitro ADME test including pharmacokinetics, plasma protein binding, CYP (Cytochrome P450) inhibition, metabolic stability and blood–brain barrier (BBB) permeability. […] We also plan to test safety panel assay in the future to obtain safety data for the drug.
Fig. S8. […]

SOD1^G93A−Tg mice = experiment: Efficacy of feeding combined with i.p. injection in SOD1G93A-Tg ALS mice; type: in vivo, mouse; settings: daily feeding from 7 weeks plus i.p. twice weekly from 11 weeks; vehicle about 80%
Method: Age-matched WT mice were tested as positive control. […] Mouse movement was recorded.
Meier survival curve of SOD1G93A-Tg ALS mouse model.
Lifespan of PRG-A-01 data was collected from
SOD1G93A-Tg ALS mouse model.

[2] = tested on: MT-SOD1 recombinant protein; experiment: In vitro oligomerization of recombinant GST-SOD1 (non-denaturing); type: biochemical; settings: GST-SOD1 4 μg/mL, PRG-A-04 10 μmol/L, 30 min, room temperature
Method: For detecting the oligomerization assay promoted by mutant-type (MT)-SOD1 recombinant proteins in vitro, GST-SOD1 recombinant protein (4 μg/mL) was incubated with PRG-A-04 (10 μmol/L) for 30 min at room temperature in PBS and the samples were mixed with non-denaturing sample buffer. Those were separated in SDS-PAGE gel without boiling.

Plasma stability [3] = type: in vitro ADME; settings: human plasma, after 120 min of incubation
[4] = Metabolic stability in liver microsomes; type: in vitro ADME; settings: beagle dog liver microsomes
[5] = mouse, in vivo, iv, 1 mg/kg
Plasma stability [6] = type: in vitro ADME; settings: beagle dog plasma, after 120 min of incubation

COc1cc(C=CCOC2Cc3cc4ccc(=O)oc4cc3OC2(C)C)ccc1[N+](=O)[O-] (stereo not drawn) [PRG-A-04]
cytotoxicity (human normal fibroblast): without severe cytotoxicity | cytotoxicity (SK-N-SH cells): without severe cytotoxicity | Mean Pe [1]: 0.418 ×10⁻⁶ cm/s | reduction of motility (rotarod latency) at 18 weeks (SOD1^G93A−Tg mice): 50% | effect on oligomerization of recombinant MT-SOD1 in vitro [2]: inhibited the oligomerizing or aggregation property of MT-SOD1 | stability in plasma (Plasma stability [3]): stable | extent of metabolism in liver microsomes [4]: moderately metabolized; also recorded: metabolized significantly | AUC0-inf [5]: 1857.00 ng·h/mL | AUC0-last [5]: 1826.50 ng·h/mL | C0 (or) Cmax [5]: 1272.33 ng/mL | T1/2 [5]: 4.12 h | stability in plasma (Plasma stability [6]): stable
